Data taken from patent US7829332B2, “Purines are self-renewal signals for neural stem cells, and purine receptor antagonists promote neuronal and glial differentiation therefrom” (Cornell Research Foundation, Inc., priority 2004, dated 2010).

Key:
Format in all cases: cell-based, mouse
neural progenitor cells = test: Calcium imaging (fluo-4/am) of Ca2+i responses in 1-2 day cultures; settings: for increase of Ca2+i by purine receptor agonists: 1-2 day cultures; for effect of removal of extracellular Ca2+ on the Ca2+ response to the agonist: extracellular Ca2+ removed
Method: Neuronal cultures were prepared from E16 mice and maintained as earlier described (Nedergaard, M., Science 263:1768-1771 (1994), which is hereby incorporated by reference in its entirety). Cytosine arabinoside (20 μM) was added at 48 hr to eliminate proliferating cells. Neural progenitor cells were isolated from E13 mice as previously described (Morshead et al., Neuron 13:1071-82 (1994); Reynolds et al., Science 255:1707-10 (1992), which are hereby incorporated by reference in their entirety). The forebrains were collected in a Ca/Mg-free Hank's buffered saline solution (HBSS) and dissociated in 0.25% trypsin. The cells were resuspended at 4×10^6 cells/ml in DMEM/F12/N2 containing 10 ng/ml bFGF and 10 ng/ml EGF (Sigma, St. Louis, Mo.). The cells were plated at 4 ml/dish into 100 mm suspension culture plates and incubated at 37° C. in 5% CO2. The cells were passaged 2 to 3 times before use.
To test the idea that purinergic signaling is restricted to undifferentiated neural precursor cells, Ca^2+ responses to ATP were first examined as a function of time after plating either neural stem cells or differentiated neurons. Cultured mouse cortical neurons in near-pure neuronal cultures were loaded with fluo-4/am and exposed to either ATP (100 μM) or K^+ (60 mM). […] The responses to ATP fell by day 3 and were absent 9 days after plating. […] By 30 hours after plating, MAP2-defined neurons expressed substantially less P2Y receptor-immunoreactivity than did neighboring, MAP2^− cells (FIG. 1C). By 5 days, P2Y-immunoreactivity was restricted to GFAP^+ astrocytes.
ATP-induced Ca^2+i increments were inhibited by both suramin (100 μM) and reactive blue (RB; 30 μM), two mechanistically-unrelated inhibitors of purinergic signaling (FIG. 1D).

neural stem cells = test: BrdU incorporation assay (mitotic index); settings: 4 hrs incubation
Method: For the BrdU incorporation assay, the cultures were incubated for 4 hrs in BrdU (Sigma, 10 μg/ml, 4 hrs), fixed and stained with rat monoclonal anti-BrdU (MAS250C, Harlan Sera-lab, Loughborough, UK; 1:200) and Cy3-conjugated goat anti-rat antibodies (Jackson ImmunoResearch, 1:300). Nuclei were visualized by Sytox (Molecular Probes, Inc.), and the mitotic index was calculated as the ratio of BrdU/Sytox positive nuclei. Limiting dilution analysis was performed as previously described (Keyoung et al., Nature Biotechnology 19:843-850 (2001); Uchida et al., Proc. Natl. Acad. Sci. 97:14720-14725 (2000), which are hereby incorporated by reference in their entirety).
Purinergic signaling has long-term effects on proliferation of numerous cell types, including rapidly replicating transformed cell lines (Burnstock, G., Arterioscler Thromb Vasc Biol 22:364-73 (2002); Michoud et al., Am J Respir Cell Mol Biol 27:732-8 (2002); Sauer et al., J Cell Sci 115:3265-73 (2002); Tu et al., Br J Pharmacol 129:1481-9 (2000), which are hereby incorporated by reference in their entirety). To better define the mitogenic effects of P2Y on neural progenitor cells, the mitogenic effects of ATP, its analogs, and its dephosphorylated metabolites were compared. To this end, BrdU incorporation by neural stem cells was quantified after 4 hrs incubation in each treatment.

[1] = tested on: neuroepithelial cells / neural spheres; test: ATP release, luciferin-luciferase bioluminescence
Method: ATP release from living cells were dynamically imaged by chemiluminescence as described in (Arcuino et al., Proc Natl Acad Sci USA 99:9840-5 (2002), which is hereby incorporated by reference in its entirety). Neural spheres were after a light spin resuspended in Ringer's solution and mounted in a temperature controlled Leiden chamber. Luciferase (0.132 mg/ml) and luciferin (0.332 mg/ml) was added to the Ringer solution. After obtaining a baseline recording of 5 minutes duration, the cultures were stimulated by adding an equal volume of Ca^2+-free Ringer solution containing 100 μM UTP. Light production from the luciferin-luciferase reaction was imaged by a liquid nitrogen-cooled CCD camera (VersArray 1300B, Princeton Instruments), using a 20× oil lens (N.A. 0.8, Olympus), 8×8 binning, and two seconds integration. ATP content in samples collected from cultures grown in 24-well tissue culture plates was measured using a Victor2 plate reader (Wallac) (Cotrina et al., Proc. Natl. Acad. Sci. 95:15735-15740 (1998), which is hereby incorporated by reference in its entirety) and normalized to the protein content (BioRad) or to the cell number. A minimum of 8 independent experiments was evaluated (n≧8, most >20). When drugs or serum were used, the standards were adjusted to containing an equivalent amount. […]

Compound | proliferation (BrdU incorporation) (neural stem cells) | increase of Ca2+i by purine receptor agonists (neural progenitor cells) | further results
Nc1ncnc2c1ncn2[C@@H](C=O)O[C@@H](C=O)COP(=O)(O)OP(=O)(O)OP(=O)(O)O [oxidized ATP, periodate oxidized adenosine 5′-triphosphate] | – | – | reduction of ATP-evoked Ca2+ responses (neural progenitor cells; 300 μM, 1 hr, p=0.4, Student's t test): did not significantly reduce
Nc1ncnc2c1ncn2[C@@H]1O[C@H](CO)[C@@H](O)[C@H]1O [adenosine] | failed to stimulate proliferation | – | –
Nc1ncnc2c1ncn2[C@@H]1O[C@H](COP(=O)(O)OP(=O)(O)OP(O)(O)=S)[C@@H](O)[C@H]1O [γSATP, γ-thio-adenosine triphosphate] | comparable effects | increased Ca^2+i with roughly equal potency | –
apyrase | inhibited proliferation | – | –
Nc1nc(Cl)nc2c1ncn2[C@@H]1O[C@H](COP(=O)(O)OP(=O)(O)OP(=O)(O)O)[C@@H](O)[C@H]1O [2-Cl-ATP, 2-chloro-adenosine triphosphate] | comparable effects | increased Ca^2+i with roughly equal potency | –
CCNC(=O)[C@H]1O[C@@H](n2cnc3c(N)ncnc32)[C@H](O)[C@@H]1O [NECA] | failed to stimulate proliferation | – | –
Nc1ncnc2c1ncn2[C@@H]1O[C@H](COP(=O)(O)CP(=O)(O)OP(=O)(O)O)[C@@H](O)[C@H]1O [αβATP] | – | failed to evoke Ca^2+ responses | –
CSc1nc(N)c2ncn([C@@H]3O[C@H](COP(=O)(O)OP(=O)(O)OP(=O)(O)O)[C@@H](O)[C@H]3O)c2n1 [2-MeSATP, 2-methylthio-adenosine triphosphate] | – | increased Ca^2+i with roughly equal potency | effect of removal of extracellular Ca2+ on the Ca2+ response to the agonist (neural progenitor cells): did not significantly decrease
Nc1ncnc2c1ncn2[C@@H]1O[C@H](COP(=O)(O)CP(=O)(O)O)[C@@H](O)[C@H]1O [AMPCP, α,β-methyl adenosine diphosphate] | potently enhanced | – | –
O=c1ccn([C@@H]2O[C@H](COP(=O)(O)OP(=O)(O)OP(=O)(O)O)[C@@H](O)[C@H]2O)c(=O)[nH]1 [UTP, uridine triphosphate] | comparable effects | increased Ca^2+i with roughly equal potency | ATP release from neural spheres, bioluminescence imaging ([1]; 100 μM, neural spheres): frequent point-source bursts of light emission; ATP release evoked by purine receptor activation ([1]; neuroepithelial cells, first 2 days in vitro): evoked robust ATP release
Nc1ncnc2c1ncn2[C@@H]1O[C@H](COP(=O)(O)OP(=O)(O)OP(=O)(O)O)[C@@H](O)[C@H]1O [ATP, adenosine triphosphate] | increased proliferation in a dose-dependent manner | increased Ca^2+i with roughly equal potency | Ca2+ response (neural progenitor cells; 100 μM, cultures younger than 2 days in vitro): Transient increments in Ca^2+ were triggered; effect of removal of extracellular Ca2+ on the Ca2+ response to the agonist (neural progenitor cells): did not significantly decrease; concentration at which proliferation peaked (neural stem cells): 100 µM
Nc1ncnc2c1ncn2[C@@H]1O[C@H](COP(=O)(O)OP(=O)(O)O)[C@@H](O)[C@H]1O [ADP, adenosine diphosphate] | comparable effects | increased Ca^2+i with roughly equal potency | –
